Measured values published in PMC10301092, “New Insights into the Opioid Analgesic Profile of cis-(−)-N-Normetazocine-derived Ligands” (Molecules, 2023).
“And” between values parts separate entries of the source, which are not always exact repeats. Equal values may be shown once. Read-outs that look alike come from different tables or passages of the source.

Experiments:
κ opioid receptor (KOR) [1] = target: T1, κ opioid receptor (KOR) (Homo sapiens, UniProt P41145); assay: KOR radioligand binding assay
T1 sequence (P41145 whole entry): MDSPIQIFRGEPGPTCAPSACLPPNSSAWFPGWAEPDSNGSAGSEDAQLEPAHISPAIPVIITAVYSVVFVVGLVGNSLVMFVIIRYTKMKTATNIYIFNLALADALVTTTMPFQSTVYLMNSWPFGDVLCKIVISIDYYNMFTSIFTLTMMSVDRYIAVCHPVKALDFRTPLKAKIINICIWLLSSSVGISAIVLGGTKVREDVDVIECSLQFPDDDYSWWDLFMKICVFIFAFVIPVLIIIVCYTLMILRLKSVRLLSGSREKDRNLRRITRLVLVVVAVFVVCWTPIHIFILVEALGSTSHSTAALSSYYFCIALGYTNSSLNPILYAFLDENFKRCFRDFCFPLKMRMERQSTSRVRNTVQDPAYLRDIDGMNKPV

sigma-1 receptor (σ1R) [2] = target: T2, sigma-1 receptor (σ1R) (Homo sapiens, UniProt Q99720); assay: σ1R radioligand binding assay
T2 sequence (Q99720 whole entry, species assumed): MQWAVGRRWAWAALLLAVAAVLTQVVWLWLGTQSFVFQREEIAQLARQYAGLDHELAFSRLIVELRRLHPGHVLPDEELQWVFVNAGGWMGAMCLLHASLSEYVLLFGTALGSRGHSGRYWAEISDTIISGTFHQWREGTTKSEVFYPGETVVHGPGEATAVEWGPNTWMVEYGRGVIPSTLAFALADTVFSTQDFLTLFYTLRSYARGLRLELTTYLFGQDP
Experimental: (§1) The radioligand binding assays and the data analysis were performed as previously reported [24].

sigma-2 receptor (σ2R) [3] = target: T3, sigma-2 receptor (σ2R) (Homo sapiens, UniProt Q5BJF2); assay: σ2R radioligand binding assay
T3 sequence (Q5BJF2 whole entry): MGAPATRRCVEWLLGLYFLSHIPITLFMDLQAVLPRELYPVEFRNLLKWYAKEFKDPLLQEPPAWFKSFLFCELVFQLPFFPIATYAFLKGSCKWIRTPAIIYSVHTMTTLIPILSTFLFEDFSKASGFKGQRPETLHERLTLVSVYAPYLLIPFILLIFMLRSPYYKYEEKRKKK
Experimental: as §1

δ opioid receptor (DOR) = δ opioid receptor (DOR) (Homo sapiens, UniProt P41143); assay: DOR radioligand binding assay
δ opioid receptor (DOR), sequence (P41143 whole entry): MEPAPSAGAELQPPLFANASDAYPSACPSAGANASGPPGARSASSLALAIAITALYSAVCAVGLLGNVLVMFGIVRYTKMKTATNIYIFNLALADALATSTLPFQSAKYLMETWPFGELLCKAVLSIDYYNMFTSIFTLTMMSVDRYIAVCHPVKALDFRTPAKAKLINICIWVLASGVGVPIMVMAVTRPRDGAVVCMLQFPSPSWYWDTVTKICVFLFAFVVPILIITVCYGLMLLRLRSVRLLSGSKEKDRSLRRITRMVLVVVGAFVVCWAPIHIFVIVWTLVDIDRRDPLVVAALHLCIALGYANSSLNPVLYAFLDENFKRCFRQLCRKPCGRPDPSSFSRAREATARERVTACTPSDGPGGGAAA

μ opioid receptor (MOR) [4] = target: T4, μ opioid receptor (MOR) (Homo sapiens, UniProt P35372); assay: MOR radioligand binding assay
T4 sequence (P35372 whole entry, species assumed): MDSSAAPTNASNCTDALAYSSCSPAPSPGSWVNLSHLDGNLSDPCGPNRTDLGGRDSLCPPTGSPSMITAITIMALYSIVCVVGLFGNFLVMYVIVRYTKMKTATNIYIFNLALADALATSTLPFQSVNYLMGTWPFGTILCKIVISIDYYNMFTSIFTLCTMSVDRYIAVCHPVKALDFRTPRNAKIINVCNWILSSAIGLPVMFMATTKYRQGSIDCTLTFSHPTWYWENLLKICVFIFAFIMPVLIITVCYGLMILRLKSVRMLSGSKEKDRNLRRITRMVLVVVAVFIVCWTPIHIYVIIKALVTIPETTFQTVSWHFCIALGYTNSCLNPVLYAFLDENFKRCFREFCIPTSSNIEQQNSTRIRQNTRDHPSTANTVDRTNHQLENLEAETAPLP

sigma-1 receptor (σ1R) [5] = target: T2, sigma-1 receptor (σ1R); conditions: read-out: Ki (nM) ± SD σ1R; cited from earlier work
sigma-2 receptor (σ2R) [6] = target: T3, sigma-2 receptor (σ2R); conditions: read-out: Ki (nM) ± SD σ2R; cited from earlier work
κ opioid receptor (KOR) [7] = target: T1, κ opioid receptor (KOR); conditions: read-out: Ki (nM) ± SD KOR; cited from earlier work
μ opioid receptor (MOR) [8] = target: T4, μ opioid receptor (MOR); conditions: read-out: Ki (nM) ± SD MOR; cited from earlier work
MOR = target: T5, MOR (Mus musculus, UniProt P42866); assay: MVD assay, Ke with naloxone / against DAMGO (MOR); format: cell-based; conditions: for functional profile at MOR: MVD, result in words; for Ke ± SEM (nM) Naloxone (MOR): Ke of naloxone against the listed agonist in isolated MVD, single-dose method, n = 5–9
T5 construct: vasa deferentia were removed from the mice; from tissue; host or cells: vas deferens of male NMRI mice
T5 sequence (P42866 whole entry): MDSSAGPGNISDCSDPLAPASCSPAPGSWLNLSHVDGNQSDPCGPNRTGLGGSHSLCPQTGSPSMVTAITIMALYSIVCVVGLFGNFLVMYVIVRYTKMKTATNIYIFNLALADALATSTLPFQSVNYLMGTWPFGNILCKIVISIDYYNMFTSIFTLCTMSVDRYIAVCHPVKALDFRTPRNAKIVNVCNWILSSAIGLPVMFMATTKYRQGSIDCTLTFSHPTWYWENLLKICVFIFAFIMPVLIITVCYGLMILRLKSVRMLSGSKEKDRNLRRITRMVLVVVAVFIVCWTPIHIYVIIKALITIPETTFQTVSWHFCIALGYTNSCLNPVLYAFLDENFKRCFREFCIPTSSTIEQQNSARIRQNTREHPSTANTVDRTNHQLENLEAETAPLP
Experimental: (§2) Isolated mouse vas deferens. The preparation of MVD was carried out as previously described by Hughes et al. [25] with minor modifications. Briefly, vasa deferentia were removed from the mice and unsheathed from the surrounding fat, connective tissue, and blood vessels. […] The upper end of the isolated organ was attached to a transducer using a thread and connected to a computer via an amplifier (PowerLab 4/20, ADInstruments, Castle Hill, NSW, Australia). The resting tension was adjusted to 0.1 g. Electrical field stimulation was applied through trains of 10 Hz with 10 rectangular impulses at a 1 ms pulse width, 9 V/cm (i.e., supramaximal intensity), repeated with 0.1 Hz (Stimulator 88, Grass Medical Instruments, Quincy, MA, USA).
(§3) Data analysis. The efficacy of each test compound to inhibit electrically evoked contraction was measured as the percentage change from baseline. […] Data are presented as the mean ± SEM. Ke values were calculated using dose ratio and the single-dose method [26]. Statistical analysis was performed with one-way ANOVA, followed by the Newman–Keuls post hoc test.

Male Wistar rats = assay: Inflammatory pain model (CFA-evoked hyperalgesia, Randall–Selitto paw pressure threshold); format: in vivo, rat; conditions: s.c.
Experimental: Inflammatory pain model (CFA-evoked hyperalgesia). Male Wistar rats (190–250 g) (Toxicoop Zrt., Budapest, Hungary) under brief isoflurane (Willy Rüsch GmbH, Böblingen, Germany) anesthesia received i.pl. injection of 0.15 mL complete Freund’s adjuvant (CFA) (source), a water-in-oil emulsion of killed mycobacterium, into the right hind paw. The experimental procedures were performed as described previously.
Experimental paradigms of CFA-evoked hyperalgesia. The measurement of the effect of the test compound was carried out 4 days following i.pl. CFA injection as described previously. Briefly, the baseline (pretest compound) of the paw pressure threshold (PPT) of both inflamed and noninflamed paws was determined. Next, the drug or vehicle was s.c. administered at a volume of 5 mL/kg body weight. Then, the response threshold to mechanical pressure stimulation of inflamed and noninflamed paws was given as paw pressure thresholds (PPTs) and measured at 30 and 60 min post administration using an arbitrary cutoff weight of twice the baseline.

KOR = target: T6, KOR (Mus musculus, UniProt P33534); assay: MVD assay, Ke with nor-BNI (KOR); format: cell-based; conditions: Ke of nor-BNI against the listed agonist in isolated MVD; n = 5–9
T6 construct: vasa deferentia were removed from the mice; from tissue; host or cells: vas deferens of male NMRI mice
T6 sequence (P33534 whole entry): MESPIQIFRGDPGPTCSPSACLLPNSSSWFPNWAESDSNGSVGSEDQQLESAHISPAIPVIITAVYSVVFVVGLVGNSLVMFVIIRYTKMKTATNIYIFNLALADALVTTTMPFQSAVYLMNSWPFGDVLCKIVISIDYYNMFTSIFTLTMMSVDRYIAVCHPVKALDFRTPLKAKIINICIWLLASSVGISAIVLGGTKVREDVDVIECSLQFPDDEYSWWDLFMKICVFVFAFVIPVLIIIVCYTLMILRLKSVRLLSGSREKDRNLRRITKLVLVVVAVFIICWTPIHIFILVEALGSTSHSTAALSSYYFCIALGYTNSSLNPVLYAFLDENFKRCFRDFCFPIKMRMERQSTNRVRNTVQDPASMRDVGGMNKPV
Experimental: as §2, §3

Male Swiss CD1 mice = assay: Thermal acute pain model (radiant heat tail-flick test); format: in vivo, mouse
Experimental: Thermal acute pain model (tail-flick test). Male Swiss CD1 mice (Envigo Laboratories, S. Pietro al Natisone (UD)) weighing 25–30 g were housed at six per cage, kept at a constant room temperature (25 ± 1 °C), under a 12:12 h light-and-dark cycle with food and water ad libitum. Each mouse was used for only one experiment. […] The radiant heat tail-flick test consists of irradiation of the lower third of the tail with an infrared source (Ugo Basile, Comerio, Italy). The day before the experiment, performed at room temperature (25 ± 1 °C), mice were habituated to the procedure for measuring the nociception threshold. The basal predrug latency was established between 3 and 6 s and was calculated as the average of the first three measurements, which were performed at 5 min intervals. A cutoff latency of 15 s was established to minimize damage to the tail. All tested compounds were dissolved in pyrogen-free isotonic saline (Baxter Healthcare, Deerfield, IL, USA) and DMSO (5%) and were administered to mice i.p. Post-treatment tail-flick latencies (TFLs) were determined at 15, 30, 45, 60, and 90 min after i.p. injection.

mouse vas deferens (MVD) = assay: Isolated mouse vas deferens (MVD): inhibition of electrically evoked contractions; format: cell-based; conditions: for IC50: 50% inhibitory concentration on electrically evoked contractions of isolated MVD, n = 5–9
Experimental: Animals. Male NMRI mice (Toxicoop Zrt., Budapest, Hungary) weighing 35–45 g were kept in groups in a temperature- and humidity-controlled room under a 12 h light/dark cycle and with food and water available ad libitum. Each animal was used for one experiment.
Isolated mouse vas deferens. The preparation of MVD was carried out as previously described by Hughes et al. with minor modifications. Briefly, vasa deferentia were removed from the mice and unsheathed from the surrounding fat, connective tissue, and blood vessels. They were then suspended between an upper (ring) and a lower (straight) electrode positioned at 5.5 cm, in 5 mL organ baths containing Krebs solution (concentrations in mM: NaCl, 118.0; NaHCO3, 25.0; KCl, 4.7; KH2PO4, 1.2; glucose, 11.0; CaCl2, 2.5; and MgSO4, 1.2) aerated with a gas mixture of 95% O2 and 5% CO2 and at a constant temperature of 36 °C. The upper end of the isolated organ was attached to a transducer using a thread and connected to a computer via an amplifier (PowerLab 4/20, ADInstruments, Castle Hill, NSW, Australia). The resting tension was adjusted to 0.1 g. Electrical field stimulation was applied through trains of 10 Hz with 10 rectangular impulses at a 1 ms pulse width, 9 V/cm (i.e., supramaximal intensity), repeated with 0.1 Hz (Stimulator 88, Grass Medical Instruments, Quincy, MA, USA).
Experimental paradigms. The experimental design of MVD required a 50 min equilibration period under electrical field stimulation, during which Krebs solution was changed every 5 min. After the equilibration period, test compounds were added cumulatively, allowing a minimum of 2 min between doses. To determine the test compounds’ dissociation constant, Ke, vasa deferentia were preincubated with the antagonist naloxone, and without washing a single concentration of the agonist test, the compound was added.
Data analysis. The efficacy of each test compound to inhibit electrically evoked contraction was measured as the percentage change from baseline. […] Data are presented as the mean ± SEM. Ke values were calculated using dose ratio and the single-dose method. […]

DOR = target: T7, DOR (Mus musculus, UniProt P32300); assay: MVD assay, Ke with naltrindole (DOR); format: cell-based; conditions: Ke of naltrindole against the listed agonist in isolated MVD; n = 5–9
T7 construct: vasa deferentia were removed from the mice; from tissue; host or cells: vas deferens of male NMRI mice
T7 sequence (P32300 whole entry): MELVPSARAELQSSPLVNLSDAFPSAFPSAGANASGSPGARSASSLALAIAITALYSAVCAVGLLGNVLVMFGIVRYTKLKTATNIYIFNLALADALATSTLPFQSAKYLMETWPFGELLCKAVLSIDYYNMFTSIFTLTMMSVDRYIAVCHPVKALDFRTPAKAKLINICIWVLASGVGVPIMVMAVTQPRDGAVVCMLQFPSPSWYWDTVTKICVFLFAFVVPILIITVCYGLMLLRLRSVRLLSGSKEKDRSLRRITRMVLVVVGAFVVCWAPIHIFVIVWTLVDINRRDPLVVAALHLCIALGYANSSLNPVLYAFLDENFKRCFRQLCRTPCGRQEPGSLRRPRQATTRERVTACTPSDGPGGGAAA
Experimental: as §2
Experimental paradigms. The experimental design of MVD required a 50 min equilibration period under electrical field stimulation, during which Krebs solution was changed every 5 min. […]
Data analysis. The efficacy of each test compound to inhibit electrically evoked contraction was measured as the percentage change from baseline. […] Ke values were calculated using dose ratio and the single-dose method [26]. […]

[9] = mean ± SD of at least two experiments in duplicate, read-out: Ki (nM) ± SD KOR
[10] = mean ± SD of at least two experiments in duplicate, read-out: Ki (nM) ± SD DOR
[11] = mean ± SD of at least two experiments in duplicate, read-out: Ki (nM) ± SD MOR

C[C@@H]1[C@@H]2Cc3ccc(O)cc3[C@@]1(C)CCN2CCCC(=O)Nc1ccccc1N [Compound 6, N-(2-aminophenyl)-4-((2S,6S,11S)-8-hydroxy-6,11-dimethyl-1,4,5,6tetrahydro-2,6-methanobenzo[d]azocin-3(2H)-yl)butanamide]
Ki (κ opioid receptor (KOR) [1]; [9]): 2455 ± 11 nM
Ki (sigma-1 receptor (σ1R) [2]): 857 ± 212 nM
Ki (sigma-2 receptor (σ2R) [3]): > 10 µM
Ki (δ opioid receptor (DOR); [10]): 4190 ± 60 nM
Ki (μ opioid receptor (MOR) [4]; [11]): 810 ± 15 nM

CN1CCN(CCc2ccc(Cl)c(Cl)c2)CC1 [BD-1063, reference compound]
Ki (sigma-1 receptor (σ1R) [2]; mean ± SD of at least two experiments in duplicate, read-out: Ki (nM) ± SD σ1R): 14 ± 2.7 nM

C[C@H]1[C@H]2Cc3ccc(O)cc3[C@]1(C)CCN2CCC(=O)Nc1ccccc1 [LP1]
Ki (sigma-1 receptor (σ1R) [5]): 149 ± 4 nM
Ki (sigma-2 receptor (σ2R) [6]): 1680 nM
Ki (κ opioid receptor (KOR) [7]): 110 ± 6 nM
Ki Ratios DOR/MOR (μ opioid receptor (MOR) [4]; ratio of Ki DOR to Ki MOR): 35.1
Ki Ratios KOR/MOR (μ opioid receptor (MOR) [4]; ratio of Ki KOR to Ki MOR): 132.5

C[C@@H]1[C@@H]2Cc3ccc(O)cc3[C@@]1(C)CCN2CCC(=O)Nc1ccccn1 [Compound 8, 3-((2S,6S,11S)-8-hydroxy-6,11-dimethyl-1,4,5,6-tetrahydro-2,6-methanobenzo[d]azocin-3(2H)-yl)-N-(pyridin-2-yl)propanamide]
Ki (κ opioid receptor (KOR) [1]): 1380 ± 20 nM
Ki (sigma-1 receptor (σ1R) [2]): 2510 ± 737 nM
Ki (sigma-2 receptor (σ2R) [3]): > 10 µM
Ki (δ opioid receptor (DOR)): > 10000 nM
Ki (μ opioid receptor (MOR) [4]): 563 ± 23 nM

CCC(=O)N(CC)c1ccccc1 [N-ethyl-N-phenyl-propanamide]
Ki (μ opioid receptor (MOR) [8]): 136 nM

C[C@H]1[C@H]2Cc3ccc(O)cc3[C@]1(C)CCN2CCCC(=O)Nc1ccccc1N [Compound 5, N-(2-aminophenyl)-4-((2R,6R,11R)-8-hydroxy-6,11-dimethyl-1,4,5,6tetrahydro-2,6-methanobenzo[d]azocin-3(2H)-yl)butanamide]
Ki (κ opioid receptor (KOR) [1]; [9]): 970 ± 21 nM
Ki (sigma-1 receptor (σ1R) [2]): > 10000 nM
Ki (sigma-2 receptor (σ2R) [3]): > 10 µM
Ki (δ opioid receptor (DOR); [10]): 1030 ± 16 nM
Ki (μ opioid receptor (MOR) [4]; [11]): 479 ± 10 nM

C[C@@H]1[C@@H]2Cc3ccc(O)cc3[C@@]1(C)CCN2CCC(=O)Nc1ccccc1N [Compound 4, N-(2-aminophenyl)-3-((2S,6S,11S)-8-hydroxy-6,11-dimethyl-1,4,5,6-tetrahydro-2,6-methanobenzo[d]azocin-3(2H)-yl)propanamide]
Ki (κ opioid receptor (KOR) [1]): 154 ± 6 nM
Ki (sigma-1 receptor (σ1R) [2]): 729 ± 168 nM
Ki (sigma-2 receptor (σ2R) [3]): > 10 µM
Ki (δ opioid receptor (DOR)): 3120 ± 73 nM
Ki (μ opioid receptor (MOR) [4]): 408 ± 11 nM

CCC(=O)N(C)c1ccccc1 [N-methyl-N-phenyl-propanamide]
Ki (μ opioid receptor (MOR) [8]): 65 nM

C[C@H]1[C@H]2Cc3ccc(O)cc3[C@]1(C)CCN2CCC(=O)Nc1ccccc1N [Compound 3, N-(2-aminophenyl)-3-((2R,6R,11R)-8-hydroxy-6,11-dimethyl-1,4,5,6-tetrahydro-2,6-methanobenzo[d]azocin-3(2H)-yl)propanamide]
Ki (κ opioid receptor (KOR) [1]): 93 ± 0.63 nM
Ki (sigma-1 receptor (σ1R) [2]): > 10000 nM
Ki (sigma-2 receptor (σ2R) [3]): > 10 µM
functional profile at MOR (MOR): antagonist
Ki (δ opioid receptor (DOR)): 155 ± 1.5 nM
Ki (μ opioid receptor (MOR) [4]): 5.96 ± 0.08 nM

C[C@H]1[C@H]2Cc3ccc(O)cc3[C@]1(C)CCN2CCC(=O)Nc1ccccn1 [Compound 7, 3-((2R,6R,11R)-8-hydroxy-6,11-dimethyl-1,4,5,6-tetrahydro-2,6-methanobenzo[d]azocin-3(2H)-yl)-N-(pyridin-2-yl)propanamide]
Ki (κ opioid receptor (KOR) [1]): 64 ± 7 nM
restoring hyperalgesia of inflamed paws (PPT) (Male Wistar rats; 5000 and 2500 µg/kg, at 30 and 60 min): effective
effect on noninflamed PPT (Male Wistar rats; in certain doses, compared with vehicle): significantly increase the noninflamed PPT
restoring hyperalgesia of inflamed paws (PPT) (Male Wistar rats; lower doses of the range 625–5000 µg/kg): tendency of antinociceptive effect
Ki (sigma-1 receptor (σ1R) [2]): > 10000 nM
Ki (sigma-2 receptor (σ2R) [3]): > 10 µM
Ke ± SEM (nM) Nor-BNI (KOR) (KOR): 68.18 ± 15.98 nM
Ke ± SEM (nM) Naloxone (MOR) (MOR): 2.42 ± 0.45 nM
functional profile at MOR (MOR): agonist
effect on mean tail-flick latency (Male Swiss CD1 mice; i.p., 3, 4, and 5 mg/kg, compared with vehicle group): increased the mean tail-flick latency
time of highest antinociceptive effect (Male Swiss CD1 mice; tail-flick, after i.p. injection): 45 min and 30 to 45 min
IC50 (mouse vas deferens (MVD); Mus musculus): 0.06688 ± 0.00038 µM
effect on electrically evoked MVD smooth muscle contractions (mouse vas deferens (MVD); result in words): concentration-dependent inhibitory effect
Ki (δ opioid receptor (DOR)): 138 ± 5 nM
Ki (μ opioid receptor (MOR) [4]): 1.49 ± 0.24 nM

CC1(C)SSC(C)(C)[C@@H](NC(=O)[C@@H](N)Cc2ccc(O)cc2)C(=O)NCC(=O)N[C@@H](Cc2ccccc2)C(=O)N[C@H]1C(=O)O [DPDPE]
Ke ± SEM (nM) Nor-BNI (KOR) (KOR): 2.57 ± 1.81 nM

CC[C@@]12CCN(CC3CC3)C(C(=O)c3ccc(O)cc31)[C@@H]2C [EKC, reference compound]
Ke ± SEM (nM) Naltrindole (DOR) (DOR): 11.47 ± 5.35 nM
Ke ± SEM (nM) Nor-BNI (KOR) (KOR): 1.76 ± 0.35 nM
Ke ± SEM (nM) Naloxone (MOR) (MOR): 8.82 ± 0.52 nM
IC50 (mouse vas deferens (MVD)): 0.0141 ± 0.00069 µM
